Tests used:
Test in all cases: AE Enzyme Inhibition Assay
[1] = molecular target: T1, Clan CD, family C13, asparaginyl endopeptidase-like cysteine peptidase (Trichomonas vaginalis (strain ATCC PRA-98 / G3), UniProt A2DYT2)
T1 sequence (A2DYT2 whole entry): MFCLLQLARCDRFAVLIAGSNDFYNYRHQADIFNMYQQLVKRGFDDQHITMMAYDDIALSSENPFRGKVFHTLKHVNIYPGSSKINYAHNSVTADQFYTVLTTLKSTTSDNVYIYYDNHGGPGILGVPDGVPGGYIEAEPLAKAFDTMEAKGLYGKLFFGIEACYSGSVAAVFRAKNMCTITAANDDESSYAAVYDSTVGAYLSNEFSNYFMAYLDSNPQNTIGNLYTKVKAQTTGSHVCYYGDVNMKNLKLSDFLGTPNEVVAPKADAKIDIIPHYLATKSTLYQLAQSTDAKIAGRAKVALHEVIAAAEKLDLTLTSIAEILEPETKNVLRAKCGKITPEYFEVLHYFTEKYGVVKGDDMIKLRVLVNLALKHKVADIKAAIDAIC
Procedure: (§1) AE activity in the induction medium was measured with the substrate Cbz-Ala-Ala-Asn-AMC. In a black 96-well microtiter plate, aza-peptidyl inhibitors were added to the reaction buffer containing the activated enzyme, and allowed to incubate at room temperature for 20 min. Then, substrate Cbz- Ala-Ala-Asn-AMC was added and the reaction allowed proceeding for 20 min. Plotting the relative fluorescence units (RFU)/min against the inhibitor concentration (uM) permitted calculation of the IC50 value.

[2] = molecular target: T2, Legumain (Schistosoma mansoni, UniProt Q9NFY9)
T2 sequence (Q9NFY9 whole entry): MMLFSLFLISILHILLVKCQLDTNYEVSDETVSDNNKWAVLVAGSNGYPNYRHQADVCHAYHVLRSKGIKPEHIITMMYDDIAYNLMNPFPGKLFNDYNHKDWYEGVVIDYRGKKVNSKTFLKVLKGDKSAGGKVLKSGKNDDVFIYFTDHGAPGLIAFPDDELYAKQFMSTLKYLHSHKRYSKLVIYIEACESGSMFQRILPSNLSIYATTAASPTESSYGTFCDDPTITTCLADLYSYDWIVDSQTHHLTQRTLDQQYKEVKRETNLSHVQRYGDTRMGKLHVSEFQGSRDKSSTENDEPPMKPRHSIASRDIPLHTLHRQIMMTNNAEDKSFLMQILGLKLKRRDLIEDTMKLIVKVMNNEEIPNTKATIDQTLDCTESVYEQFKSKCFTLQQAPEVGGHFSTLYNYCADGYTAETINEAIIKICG
Procedure: as §1

[3] = molecular target: T3, Legumain (Ixodes ricinus, UniProt Q6PRC7); conditions: 25 °C
T3 sequence (Q6PRC7 whole entry): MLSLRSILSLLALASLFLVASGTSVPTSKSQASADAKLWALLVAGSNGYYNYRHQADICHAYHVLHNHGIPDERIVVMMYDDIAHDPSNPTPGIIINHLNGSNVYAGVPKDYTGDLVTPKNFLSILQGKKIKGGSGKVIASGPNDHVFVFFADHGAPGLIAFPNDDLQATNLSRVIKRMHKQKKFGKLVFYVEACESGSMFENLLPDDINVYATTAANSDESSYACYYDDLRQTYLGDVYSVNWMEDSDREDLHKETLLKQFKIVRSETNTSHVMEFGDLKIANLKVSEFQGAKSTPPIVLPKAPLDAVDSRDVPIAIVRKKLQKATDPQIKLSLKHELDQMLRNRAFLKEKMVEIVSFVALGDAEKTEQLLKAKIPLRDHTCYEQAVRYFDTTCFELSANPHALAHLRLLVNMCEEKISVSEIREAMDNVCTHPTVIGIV
Procedure: as §1

| Structure (SMILES) | IC50 ([1]; pH 6.8, 22 °C) [µM] | IC50 ([2]; pH 6.8, 22 °C) [µM] | IC50 [3] [µM] | IC50 ([1]; 25 °C) [µM] | IC50 ([2]; 25 °C) [µM] |
| --- | --- | --- | --- | --- | --- |
| C[C@H](NC(=O)OCc1ccccc1)C(=O)N[C@@H](C)C(=O)NN(CC(N)=O)C(=O)C=CC(=O)NCc1ccc(F)cc1 [benzyl N-[(1S)-1-{[(2S)-1-[(2E)-3-[N-(carbamoylmethyl)hydrazido]-N-[(4-fluorophenyl)methyl]prop-2-enamide]-1-oxopropan-2-yl]carbamoyl}ethyl]carbamate] | 0.075 | 0.8 | 0.25 | – | – |
| C[C@H](NC(=O)OCc1ccccc1)C(=O)N[C@@H](C)C(=O)NN(CC(N)=O)C(=O)C=CC(=O)N(Cc1ccccc1)Cc1ccc(F)cc1 [benzyl N-[(1S)-1-{[(2S)-1-[(2E)-N-benzyl-3-[N-(carbamoylmethyl)hydrazido]-N-[(4-fluorophenyl)methyl]prop-2-enamide]-1-oxopropan-2-yl]carbamoyl}ethyl]carbamate] | – | – | 0.7 | < 0.001 | 0.06 |
| CCOC(=O)C=CC(=O)N(CC(N)=O)NC(=O)[C@H](C)NC(=O)[C@H](C)NC(=O)CCCC[C@@H]1SC[C@@H]2NC(=O)N[C@@H]21 [ethyl (2E)-4-[(2S)-2-[(2S)-2-{5-[(3aS,4S,6aR)-2-oxo-hexahydro-1H-thieno[3,4-d]imidazolidin-4-yl]pentanamido}propanamido]-N'-(carbamoylmethyl)propanehydrazido]-4-oxobut-2-enoate] | – | – | 0.0028 | < 0.01 | 0.01 |
| C[C@H](NC(=O)OCc1ccccc1)C(=O)N[C@@H](C)C(=O)NN(CC(N)=O)C(=O)C=CC(=O)N(C)c1ccccc1 [benzyl N-[(1S)-1-{[(2S)-1-[(2E)-3-[N-(carbamoylmethyl)hydrazido]-N-methyl-N-phenylprop-2-enamide]-1-oxopropan-2-yl]carbamoyl}ethyl]carbamate] | 0.005 | 0.06 | 0.0018 | – | – |
| C[C@H](NC(=O)OCc1ccccc1)C(=O)N[C@@H](C)C(=O)NN(CC(N)=O)C(=O)C=CC(=O)N(Cc1ccco1)Cc1ccco1 [benzyl N-[(1S)-1-{[(1S)-1-{N'-[(2E)-3-[bis(furan-2-ylmethyl)carbamoyl]prop-2-enoyl]-N'-(carbamoylmethyl)hydrazinecarbonyl}ethyl]carbamoyl}ethyl]carbamate] | – | – | 15 | 5 | 0.9 |
| C[C@H](NC(=O)OCc1ccccc1)C(=O)N[C@@H](C)C(=O)NN(CC(N)=O)C(=O)C=CC(=O)NCc1ccccc1 [benzyl N-[(1S)-1-{[(2S)-1-[(2E)-N-benzyl-3-[N-(carbamoylmethyl)hydrazido]prop-2-enamide]-1-oxopropan-2-yl]carbamoyl}ethyl]carbamate] | 0.01 | 1 | 0.2 | – | – |
| C[C@H](NC(=O)OCc1ccccc1)C(=O)N[C@@H](C)C(=O)NN(CC(N)=O)C(=O)C=CC(=O)N1Cc2ccccc2C1 [benzyl N-[(1S)-1-{[(1S)-1-[N'-(carbamoylmethyl)-N'-[(2E)-4-(2,3-dihydro-1H-isoindol-2-yl)-4-oxobut-2-enoyl]hydrazinecarbonyl]ethyl]carbamoyl}ethyl]carbamate] | – | – | 0.0045 | 0.02 | 0.3 |
| C[C@H](NC(=O)OCc1ccccc1)C(=O)N[C@@H](C)C(=O)NN(CC(N)=O)C(=O)C=CC(=O)N1CC=C(c2ccccc2)CC1 [benzyl N-[(1S)-1-{[(2S)-1-[(2E)-N-(carbamoylmethyl)-4-oxo-4-(4-phenyl-1,2,3,6-tetrahydropyridin-1-yl)but-2-enehydrazido]-1-oxopropan-2-yl]carbamoyl}ethyl]carbamate] | – | – | 0.085 | 0.01 | 0.75 |
| C[C@H](NC(=O)OCc1ccccc1)C(=O)N[C@@H](C)C(=O)NN(CC(N)=O)C(=O)C=CC(=O)N1CCc2ccccc2C1 [benzyl N-[(1S)-1-{[(2S)-1-[(2E)-N-(carbamoylmethyl)-4-oxo-4-(1,2,3,4-tetrahydroisoquinolin-2-yl)but-2-enehydrazido]-1-oxopropan-2-yl]carbamoyl}ethyl]carbamate] | – | – | 0.025 | 0.01 | 0.2 |
| COc1ccc(CN(Cc2ccccc2)C(=O)C=CC(=O)N(CC(N)=O)NC(=O)[C@H](C)NC(=O)[C@H](C)NC(=O)OCc2ccccc2)cc1 [benzyl N-[(1S)-1-{[(2S)-1-[(2E)-N-benzyl-3-[N-(carbamoylmethyl)hydrazido]-N-[(4-methoxyphenyl)methyl]prop-2-enamide]-1-oxopropan-2-yl]carbamoyl}ethyl]carbamate] | – | 0.09 | 0.012 | 0.0023 | – |
| C[C@H](NC(=O)OCc1ccccc1)C(=O)N[C@@H](C)C(=O)NN(CC(N)=O)C(=O)C=CC(=O)N(Cc1ccccc1)Cc1cccc2ccccc12 [benzyl N-[(1S)-1-{[(2S)-1-[(2E)-N-benzyl-3-[N-(carbamoylmethyl)hydrazido]-N-(naphthalen-1-ylmethyl)prop-2-enamide]-1-oxopropan-2-yl]carbamoyl}ethyl]carbamate] | – | – | 0.006 | < 0.001 | 0.062 |
| C[C@H](NC(=O)OCc1ccccc1)C(=O)N[C@@H](C)C(=O)NN(CC(N)=O)C(=O)C=CC(=O)Nc1ccccc1 [benzyl N-[(1S)-1-{[(2S)-1-[(2E)-3-[N-(carbamoylmethyl)hydrazido]-N-phenylprop-2-enamide]-1-oxopropan-2-yl]carbamoyl}ethyl]carbamate] | 0.02 | 0.7 | 0.01 | – | – |
